The source of these data is ChEMBL document CHEMBL1157917, “Structure-based rational design, synthesis and antifungal activity of oxime-containing azole derivatives” (2010).

Type in all cases: functional
One test deals with Aspergillus fumigatus. Description: Antifungal activity against Aspergillus fumigatus after 7 days by serial dilution method. The settings on record: 168 h.
For the next test, the system named is Candida tropicalis. The test is described as follows: Antifungal activity against Candida tropicalis after 24 hrs by serial dilution method.
In a further test the test system is Pichia kudriavzevii. Description: Antifungal activity against Candida krusei after 24 hrs by serial dilution method.
The subject of a further test is Cryptococcus neoformans. Description: Antifungal activity against Cryptococcus neoformans after 72 hrs by serial dilution method.
A further test relates to Trichophyton rubrum. Description: Antifungal activity against Trichophyton rubrum after 7 days by serial dilution method. The settings on record: 168 h.
Another test has as its system Candida parapsilosis. The test is described as follows: Antifungal activity against Candida parapsilosis after 24 hrs by serial dilution method. The settings on record: Lodderomyces parapsilosis.
A further test has as its system Candida albicans. Description: Antifungal activity against Candida albicans after 24 hrs by serial dilution method.

In brackets after ≈: the same amount, converted by molar mass.

Turning to `O=[N+]([O-])c1cccc(CON=C2CCN(CC(O)(Cn3cncn3)c3ccc(F)cc3F)CC2)c1` (racemic), the MIC80 – broadly, the lowest concentration that inhibits either 80% of growth or 80% of the strains tested, depending on the study – with Aspergillus fumigatus worked out at 1 µg/mL (≈ 2.06 µM); against Candida tropicalis, 1 µg/mL (≈ 2.06 µM); against Pichia kudriavzevii it was 1 µg/mL (≈ 2.06 µM); in the test on Cryptococcus neoformans it was 0.0625 µg/mL (≈ 0.128 µM); in the test with Trichophyton rubrum, 0.25 µg/mL (≈ 0.514 µM); with Candida parapsilosis it was 0.0625 µg/mL (≈ 0.128 µM). The MIC80 with Candida albicans is 1 µg/mL (≈ 2.06 µM).

For `OC(Cn1cncn1)(Cn1cncn1)c1ccc(F)cc1F` [FLUCONAZOLE], the MIC80 with Aspergillus fumigatus is greater than 64 µg/mL; in the test with Candida tropicalis, 1 µg/mL (≈ 3.27 µM); against Pichia kudriavzevii, 1 µg/mL (≈ 3.27 µM); with Cryptococcus neoformans, 0.0625 µg/mL (≈ 0.204 µM); with Trichophyton rubrum it was 1 µg/mL (≈ 3.27 µM); with Candida parapsilosis, 0.25 µg/mL (≈ 0.816 µM). In addition, the MIC80 in the test on Candida albicans was 0.25 µg/mL (≈ 0.816 µM).

For `CCC(C)n1ncn(-c2ccc(N3CCN(c4ccc(OCC5COC(Cn6cncn6)(c6ccc(Cl)cc6Cl)O5)cc4)CC3)cc2)c1=O` (stereo not drawn) [ITRACONAZOLE], the MIC80 in the test with Aspergillus fumigatus came to 1 µg/mL (≈ 1.42 µM); against Candida tropicalis, 0.0625 µg/mL (≈ 0.0886 µM); in the test with Pichia kudriavzevii, 0.25 µg/mL (≈ 0.354 µM); in the test on Cryptococcus neoformans, 0.004 µg/mL (≈ 0.00567 µM); with Trichophyton rubrum, 0.004 µg/mL (≈ 0.00567 µM); in the test with Candida parapsilosis it was 0.0625 µg/mL (≈ 0.0886 µM). In the test with Candida albicans, this compound returned an MIC80 of 0.016 µg/mL (≈ 0.0227 µM).

Regarding `C[C@@H](c1ncncc1F)[C@](O)(Cn1cncn1)c1ccc(F)cc1F` [VORICONAZOLE], the MIC80 was 0.0625 µg/mL (≈ 0.179 µM) with Aspergillus fumigatus; 0.004 µg/mL (≈ 0.0115 µM) in the test with Candida tropicalis; 0.016 µg/mL (≈ 0.0458 µM) against Pichia kudriavzevii; 0.004 µg/mL (≈ 0.0115 µM) in the test on Cryptococcus neoformans; 0.004 µg/mL (≈ 0.0115 µM) against Trichophyton rubrum; 0.004 µg/mL (≈ 0.0115 µM) against Candida parapsilosis. Also, in the test on Candida albicans, the MIC80 came to 0.004 µg/mL (≈ 0.0115 µM).
